Test: CHI Log D procedure
Assay type: physicochemical
Settings: pH 7.4

Row | SMILES | CHI Log D | logD | chromatographic logD
1 | CC(=O)N[C@@H](Cc1ccccc1)C(=O)N[C@@H](CC(=O)O)C(=O)N[C@@H](C)C(=O)N[C@]1(C)CCCCCCC=CCOC(=O)N2CC[C@@](C(=O)N[C@@H](Cc3ccccc3)C(=O)N[C@@H](Cc3c[nH]c4ccccc34)C(=O)N[C@@H](CCC(N)=O)C(N)=O)(C2)NC(=O)[C@H](C(C)C)NC(=O)[C@H](Cc2ccccc2)NC(=O)[C@H](CCCC(=O)O)NC(=O)[C@H](C)NC(=O)[C@H](CC(=O)O)NC(=O)[C@H](CC(=O)O)NC1=O [I-23, Ac-Phe-Asp-Ala-R8-Asp-Asp-Ala-Aad-Phe-Val-PyrS-Phe-Trp-Gln-NH2] | 0.942 |  | 
2 | CC(=O)N1CCC[C@]12CC=CCCCC1(CCCC=CCCCOC(=O)N3CC[C@@](C(=O)N[C@@H](Cc4ccsc4)C(=O)N[C@@H](Cc4csc5ccccc45)C(=O)N[C@@H](CCC(N)=O)C(N)=O)(C3)NC(=O)[C@H](CC(N)=O)NC(=O)[C@H](Cc3ccccc3)NC(=O)[C@H](C)NC(=O)[C@H](C)NC(=O)[C@H](CC(=O)O)NC(=O)[C@H](CC(=O)O)NC1=O)NC(=O)[C@H](CC(C)(C)C)NC(=O)[C@H](CC(=O)O)NC2=O (stereo partly drawn) [I-687, Ac-PL3-Asp-Npg-B5-Asp-Asp-Ala-Ala-Phe-Asn-PyrS2-3Thi-BztA-Gln-NH2] | 2.035 | 2.0 | 
3 | CC(=O)N[C@@H](Cc1ccccc1)C(=O)N[C@@H](CC(=O)O)C(=O)N[C@@H](C)C(=O)N[C@]1(C)CCCCCCC=CCOC(=O)N2CC[C@@](C(=O)N[C@@H](Cc3ccccc3)C(=O)N[C@@H](Cc3c[nH]c4ccccc34)C(=O)N[C@@H](CCC(N)=O)C(N)=O)(C2)NC(=O)[C@H](C(C)C)NC(=O)[C@H](Cc2ccc(C(N)=O)cc2)NC(=O)[C@H](C)NC(=O)[C@H](C)NC(=O)[C@H](CC(=O)O)NC(=O)[C@H](CC(=O)O)NC1=O [I-92, Ac-Phe-Asp-Ala-R8-Asp-Asp-Ala-Ala-4CBMF-Val-PyrS-Phe-Trp-Gln-NH2] | 1.199 |  | 
4 | CC(=O)N[C@@H](Cc1ccccc1)C(=O)N[C@@H](CC(=O)O)C(=O)N[C@@H](C)C(=O)N[C@]1(C)CN(C)C(=O)OCC=CCCCCC[C@@](C)(C(=O)N[C@@H](Cc2ccccc2)C(=O)N[C@@H](Cc2c[nH]c3ccccc23)C(=O)N[C@@H](CCC(N)=O)C(N)=O)NC(=O)[C@H](C(C)C)NC(=O)[C@H](Cc2ccccc2)NC(=O)[C@H](C)NC(=O)[C@H](C)NC(=O)[C@H](CC(=O)O)NC(=O)[C@H](CC(=O)O)NC1=O (single isomer, unassigned) [I-46, Ac-Phe-Asp-Ala-RgN-Asp-Asp-Ala-Ala-Phe-Val-S7-Phe-Trp-Gln-NH2] | 1.205 |  | 
5 | CC(=O)N[C@@H](Cc1ccccc1)C(=O)N[C@@H](CC(=O)O)C(=O)N[C@@H](C)C(=O)N[C@]1(C)CCCCCCC=CCOC(=O)N2CC(C(=O)N[C@@H](Cc3ccccc3)C(=O)N[C@@H](Cc3c[nH]c4ccccc34)C(=O)N[C@@H](CCC(N)=O)C(N)=O)(C2)NC(=O)[C@H](C(C)C)NC(=O)[C@H](Cc2ccccc2)NC(=O)[C@H](C)NC(=O)[C@H](C)NC(=O)[C@H](CC(=O)O)NC(=O)[C@H](CC(=O)O)NC1=O (single isomer, unassigned) [I-40, Ac-Phe-Asp-Ala-R8-Asp-Asp-Ala-Ala-Phe-Val-Az-Phe-Trp-Gln-NH2] | 1.243 |  | 
6 | CC(=O)N[C@@H](Cc1ccccc1)C(=O)N[C@@H](CC(=O)O)C(=O)N[C@@H](C)C(=O)N[C@]1(C)CCCN(C)C(=O)OCC=CCCCC[C@@](C)(C(=O)N[C@@H](Cc2ccccc2)C(=O)N[C@@H](Cc2c[nH]c3ccccc23)C(=O)N[C@@H](CCC(N)=O)C(N)=O)NC(=O)[C@H](C(C)C)NC(=O)[C@H](Cc2ccccc2)NC(=O)[C@H](C)NC(=O)[C@H](C)NC(=O)[C@H](CC(=O)O)NC(=O)[C@H](CC(=O)O)NC1=O [I-28, Ac-Phe-Asp-Ala-ReN-Asp-Asp-Ala-Ala-Phe-Val-S6-Phe-Trp-Gln-NH2] | 1.219 |  | 
7 | CC(=O)N[C@@H](Cc1ccccc1)C(=O)N[C@@H](CC(=O)O)C(=O)N[C@@H](C)C(=O)N[C@]1(C)CCCCCCC=CCOC(=O)N2CC[C@@](C(=O)N[C@@H](Cc3ccccc3)C(=O)N[C@@H](Cc3c[nH]c4ccccc34)C(=O)N[C@@H](CCC(N)=O)C(N)=O)(C2)NC(=O)[C@H](C(C)C)NC(=O)[C@H](Cc2ccccc2)NC(=O)[C@H](C)NC(=O)[C@H](C)NC(=O)[C@H](Cc2ccccc2)NC(=O)[C@H](CC(=O)O)NC1=O (single isomer, unassigned) [I-99, Ac-Phe-Asp-Ala-R8-Asp-Phe-Ala-Ala-Phe-Val-PyrS-Phe-Trp-Gln-NH2] |  |  | 1.99

Same assay, conditions: pH 7.4, CHI Log D

Row | SMILES | chromatographic logD
8 | CC(=O)N[C@@H](Cc1ccccc1)C(=O)N[C@@H](CC(=O)O)C(=O)N[C@@H](C)C(=O)N[C@]1(C)CCCCCCC=CCOC(=O)N2CC[C@@](C(=O)N[C@@H](Cc3ccccc3)C(=O)N[C@@H](Cc3c[nH]c4ccccc34)C(=O)N[C@@H](CCC(N)=O)C(N)=O)(C2)NC(=O)[C@H](C(C)C)NC(=O)[C@H](Cc2cccnc2)NC(=O)[C@H](C)NC(=O)[C@H](C)NC(=O)[C@H](CC(=O)O)NC(=O)[C@H](CC(=O)O)NC1=O (single isomer, unassigned) [I-87, Ac-Phe-Asp-Ala-R8-Asp-Asp-Ala-Ala-3PyrA-Val-PyrS-Phe-Trp-Gln-NH2] | 1.15
9 | CC(=O)N1CCC[C@]12CC=CCCCC1(CCCC=CCCCCCC[C@@](C)(C(=O)N[C@@H](Cc3ccccc3)C(=O)N[C@@H](Cc3c[nH]c4ccccc34)C(=O)N[C@@H](CCC(N)=O)C(N)=O)NC(=O)[C@H](C(C)C)NC(=O)[C@H](Cc3ccccc3)NC(=O)[C@H](C)NC(=O)[C@H](C)NC(=O)[C@@](C)(CC(C)C)NC(=O)[C@H](CC(=O)O)NC1=O)NC(=O)[C@H](C)NC(=O)[C@H](CC(=O)O)NC2=O (single isomer, unassigned) [I-215, Ac-PL3-Asp-Ala-B5-Asp-DaMeL-Ala-Ala-Phe-Val-S8-Phe-Trp-Gln-NH2] | 2.87
10 | CC(=O)N[C@@H](Cc1ccccc1)C(=O)N[C@@H](CC(=O)O)C(=O)N[C@@H](C)C(=O)N[C@]1(C)CCCCCCC=CCOC(=O)N2CC[C@@](C(=O)N[C@@H](Cc3ccccc3)C(=O)N[C@@H](Cc3c[nH]c4ccccc34)C(=O)N[C@@H](CCC(N)=O)C(N)=O)(C2)NC(=O)[C@H](C(C)C)NC(=O)[C@H](Cc2ccccc2)NC(=O)[C@H](C)NC(=O)[C@H](C)NC(=O)[C@@](C)(Cc2ccccc2)NC(=O)[C@H](CC(=O)O)NC1=O (single isomer, unassigned) [I-56, Ac-Phe-Asp-Ala-R8-Asp-aMeDF-Ala-Ala-Phe-Val-PyrS-Phe-Trp-Gln-NH2] | 2.16
11 | CCCC[C@@H]1NC(=O)[C@H](C)NC(=O)[C@H](C)NC(=O)[C@H](CC(=O)O)NC(=O)[C@H](CC(=O)O)NC(=O)[C@](C)(NC(=O)[C@H](C)NC(=O)[C@H](CC(=O)O)NC(=O)[C@H](Cc2ccccc2)NC(C)=O)CCCCCCC=CCOC(=O)N2CC[C@@](C(=O)N[C@@H](Cc3ccccc3)C(=O)N[C@@H](Cc3c[nH]c4ccccc34)C(=O)N[C@@H](CCC(N)=O)C(N)=O)(C2)NC(=O)[C@H](C(C)C)NC1=O [I-76, Ac-Phe-Asp-Ala-R8-Asp-Asp-Ala-Ala-nLeu-Val-PyrS-Phe-Trp-Gln-NH2] | 1.2
12 | CC(=O)N[C@@H](Cc1ccccc1)C(=O)N[C@@H](CC(=O)O)C(=O)N[C@@H](C)C(=O)N[C@]1(C)CCCCCCC=CCOC(=O)N2CC[C@@](C(=O)N[C@@H](Cc3ccc(C(N)=O)cc3)C(=O)N[C@@H](Cc3c[nH]c4ccccc34)C(=O)N[C@@H](CCC(N)=O)C(N)=O)(C2)NC(=O)[C@H](C(C)C)NC(=O)[C@H](Cc2ccccc2)NC(=O)[C@H](C)NC(=O)[C@H](C)NC(=O)[C@H](CC(=O)O)NC(=O)[C@H](CC(=O)O)NC1=O (single isomer, unassigned) [I-90, Ac-Phe-Asp-Ala-R8-Asp-Asp-Ala-Ala-Phe-Val-PyrS-4CBMF-Trp-Gln-NH2] | 0.958
13 | CC(=O)N[C@@H](Cc1ccccc1)C(=O)N[C@@H](CC(=O)O)C(=O)N[C@@H](C)C(=O)N[C@]1(C)CCCN(C)C(=O)OCC=CCCCC[C@@](C)(C(=O)N[C@@H](Cc2ccccc2)C(=O)N[C@@H](Cc2c[nH]c3ccccc23)C(=O)N[C@@H](CCC(N)=O)C(N)=O)NC(=O)[C@H](C(C)C)NC(=O)[C@H](Cc2ccccc2)NC(=O)[C@H](C)NC(=O)[C@H](C)NC(=O)[C@H](CC(=O)O)NC(=O)[C@H](CC(=O)O)NC1=O (single isomer, unassigned) [I-29, Ac-Phe-Asp-Ala-ReN-Asp-Asp-Ala-Ala-Phe-Val-S6-Phe-Trp-Gln-NH2] | 1.6
14 | CC(=O)N[C@@H](Cc1ccccc1)C(=O)N[C@@H](CC(=O)O)C(=O)N[C@@H](C)C(=O)N[C@]1(C)CCCCCCC=CCOC(=O)N2CC[C@@](C(=O)N[C@@H](Cc3ccccn3)C(=O)N[C@@H](Cc3c[nH]c4ccccc34)C(=O)N[C@@H](CCC(N)=O)C(N)=O)(C2)NC(=O)[C@H](C(C)C)NC(=O)[C@H](Cc2ccccc2)NC(=O)[C@H](C)NC(=O)[C@H](C)NC(=O)[C@H](CC(=O)O)NC(=O)[C@H](CC(=O)O)NC1=O (single isomer, unassigned) [I-80, Ac-Phe-Asp-Ala-R8-Asp-Asp-Ala-Ala-Phe-Val-PyrS-2PyrA-Trp-Gln-NH2] | 1.04
15 | CC(=O)N[C@@H](Cc1ccccc1)C(=O)N[C@@H](CC(=O)O)C(=O)N[C@@H](C)C(=O)N[C@]1(C)CCCCCCC=CCOC(=O)N2CC[C@@](C(=O)N[C@@H](Cc3ccccc3)C(=O)N[C@@H](Cc3c[nH]c4ccccc34)C(=O)N[C@@H](CCC(N)=O)C(N)=O)(C2)NC(=O)[C@H](C(C)C)NC(=O)[C@H](Cc2ccccc2)NC(=O)[C@H](CC(=O)O)NC(=O)[C@H](C)NC(=O)[C@H](CC(=O)O)NC(=O)[C@H](CC(=O)O)NC1=O (single isomer, unassigned) [I-19, Ac-Phe-Asp-Ala-R8-Asp-Asp-Ala-Asp-Phe-Val-PyrS-Phe-Trp-Gln-NH2] | 0.948
16 | CC(=O)N[C@@H](Cc1ccccc1)C(=O)N[C@@H](CC(=O)O)C(=O)N[C@@H](C)C(=O)N[C@]1(C)CCC=CCOC(=O)N(C)CCC[C@@](C)(C(=O)N[C@@H](Cc2ccccc2)C(=O)N[C@@H](Cc2c[nH]c3ccccc23)C(=O)N[C@@H](CCC(N)=O)C(N)=O)NC(=O)[C@H](C(C)C)NC(=O)[C@H](Cc2ccccc2)NC(=O)[C@H](C)NC(=O)[C@H](C)NC(=O)[C@H](CC(=O)O)NC(=O)[C@H](CC(=O)O)NC1=O [I-36, Ac-Phe-Asp-Ala-R4-Asp-Asp-Ala-Ala-Phe-Val-SeN-Phe-Trp-Gln-NH2] | 1.13
